In patent US6737383B1, “Herbicidal oxadiazolidines” (priority 1999, dated 2004):

Experiments:
giant foxtail = assay: Test B pre/postemergence giant foxtail; assay type: in vivo, Setaria faberii
Method in brief: (§1)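 Herbicidal effect was estimated by eye on a ten-point control scale after plants spent twelve to sixteen days in a greenhouse following soil or foliar treatment. Foliar sprays targeted plants at one to four leaves; all doses were formulated in a non-phytotoxic solvent with surfactant.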

crabgrass = assay: Test B pre/postemergence crabgrass; assay type: in vivo, Digitaria sanguinalis
Method in brief: as §1

purple nutsedge = assay: Test B pre/postemergence purple nutsedge; assay type: in vivo, Cyperus rotundus
Method in brief: as §1

wheat = assay: Test B pre/postemergence wheat; assay type: in vivo, Triticum aestivum
Method in brief: as §1

velvetleaf = assay: Test B pre/postemergence velvetleaf; assay type: in vivo, Abutilon theophrasti
Method in brief: as §1

wild oat = assay: Test B pre/postemergence wild oat; assay type: in vivo, Avena fatua
Method in brief: as §1

blackgrass = assay: Test B pre/postemergence blackgrass; assay type: in vivo, Alopecurus myosuroides
Method in brief: as §1

cocklebur = assay: Test B pre/postemergence cocklebur; assay type: in vivo, Xanthium strumarium
Method in brief: as §1

soybean = assay: Test B pre/postemergence soybean; assay type: in vivo, Glycine max
Method in brief: as §1

corn = assay: Test B pre/postemergence corn; assay type: in vivo, Zea mays
Method in brief: as §1

sugar beet = assay: Test B pre/postemergence sugar beet; assay type: in vivo, Beta vulgaris
Method in brief: as §1

rape = assay: Test B pre/postemergence rape; assay type: in vivo, Brassica napus
Method in brief: as §1

bedstraw = assay: Test B pre/postemergence bedstraw; assay type: in vivo, Galium aparine
Method in brief: as §1

pigweed = assay: Test B pre/postemergence pigweed; assay type: in vivo, Amaranthus retroflexus
Method in brief: as §1

morningglory = assay: Test B pre/postemergence morningglory; assay type: in vivo, Ipomoea hederacea
Method in brief: as §1

surinam grass = assay: Test B pre/postemergence surinam grass; assay type: in vivo, Brachiaria decumbens
Method in brief: as §1

[1] = Postemergence, Rate 62 g/ha, scale 0 to 10, 0 is no effect, 10 is complete control
[2] = Postemergence, Rate 125 g/ha, scale of 0 to 10 where 0 is no effect and 10 is complete control
[3] = Postemergence, Rate 500 g/ha, scale 0 (no effect) to 10 (complete control)
[4] = Preemergence, Rate 250 g/ha, scale 0 (no effect) to 10 (complete control)
[5] = Rate 62 g/ha, Preemergence, scale 0 to 10
[6] = Rate 125 g/ha, Preemergence, scale 0 to 10 (0 no effect, 10 complete control)
[7] = Rate 250 g/ha, Postemergence, scale 0 to 10, 0 is no effect, 10 is complete control
[8] = Rate 500 g/ha, Preemergence, scale 0 to 10 (0 no effect, 10 complete control)

COC1CCC(Cn2c(=O)on(C(=O)N(c3ccc(F)cc3)C(C)C)c2=O)=NO1 (centres unmarked) [Compound 766]
Plant response rating, Giant foxtail (giant foxtail; [1]): 0 | Giant foxtail plant response rating (giant foxtail; [2]): 8 | Giant foxtail plant response rating (giant foxtail; [3]): 9 | Giant foxtail plant response rating (giant foxtail; [4]): 9 | Giant foxtail plant response rating (giant foxtail; [5]): 9 | Giant foxtail plant response rating (giant foxtail; [6]): 9 | Giant foxtail plant response rating (giant foxtail; [7]): 9 | Giant foxtail plant response rating (giant foxtail; [8]): 10 | Plant response rating, Crabgrass (crabgrass; [1]): 2 | Crabgrass plant response rating (crabgrass; [2]): 6 | Crabgrass plant response rating (crabgrass; [3]): 9 | Crabgrass plant response rating (crabgrass; [4]): 10 | Crabgrass plant response rating (crabgrass; [5]): 9 | Crabgrass plant response rating (crabgrass; [6]): 9 | Crabgrass plant response rating (crabgrass; [7]): 6 | Crabgrass plant response rating (crabgrass; [8]): 10 | Plant response rating, Nutsedge (purple nutsedge; [1]): 0 | Nutsedge plant response rating (purple nutsedge; [2]): 3 | Nutsedge plant response rating (purple nutsedge; [3]): 5 | Nutsedge plant response rating (purple nutsedge; [5]): 0 | Nutsedge plant response rating (purple nutsedge; [6]): 0 | Nutsedge plant response rating (purple nutsedge; [8]): 4 | Plant response rating, Wheat (wheat; [1]): 0 | Wheat plant response rating (wheat; [3]): 3 | Wheat plant response rating (wheat; [5]): 0 | Wheat plant response rating (wheat; [6]): 4 | Wheat plant response rating (wheat; [7]): 3 | Wheat plant response rating (wheat; [8]): 10 | Plant response rating, Velvetleaf (velvetleaf; [1]): 0 | Velvetleaf plant response rating (velvetleaf; [3]): 5 | Velvetleaf plant response rating (velvetleaf; [5]): 5 | Velvetleaf plant response rating (velvetleaf; [6]): 5 | Velvetleaf plant response rating (velvetleaf; [7]): 3 | Velvetleaf plant response rating (velvetleaf; [8]): 10 | Plant response rating, Wild oats (wild oat; [1]): 0 | Wild oats plant response rating (wild oat; [3]): 2 | Wild oats plant response rating (wild oat; [5]): 3 | Wild oats plant response rating (wild oat; [6]): 7 | Wild oats plant response rating (wild oat; [7]): 2 | Wild oats plant response rating (wild oat; [8]): 10 | Plant response rating, Blackgrass (blackgrass; [1]): 0 | Blackgrass plant response rating (blackgrass; [2]): 5 | Blackgrass plant response rating (blackgrass; [4]): 8 | Blackgrass plant response rating (blackgrass; [5]): 0 | Blackgrass plant response rating (blackgrass; [6]): 7 | Blackgrass plant response rating (blackgrass; [7]): 6 | Blackgrass plant response rating (blackgrass; [8]): 9 | Plant response rating, Cocklebur (cocklebur; [1]): 0 | Cocklebur plant response rating (cocklebur; [2]): 0 | Cocklebur plant response rating (cocklebur; [3]): 6 | Cocklebur plant response rating (cocklebur; [5]): 0 | Cocklebur plant response rating (cocklebur; [6]): 0 | Cocklebur plant response rating (cocklebur; [7]): 2 | Cocklebur plant response rating (cocklebur; [8]): 0 | Plant response rating, Soybean (soybean; [1]): 2 | Soybean plant response rating (soybean; [3]): 4 | Soybean plant response rating (soybean; [5]): 0 | Soybean plant response rating (soybean; [6]): 0 | Soybean plant response rating (soybean; [7]): 4 | Soybean plant response rating (soybean; [8]): 0 | Plant response rating, Corn (corn; [1]): 0 | Corn plant response rating (corn; [2]): 0 | Corn plant response rating (corn; [3]): 4 | Corn plant response rating (corn; [4]): 0 | Corn plant response rating (corn; [5]): 0 | Corn plant response rating (corn; [6]): 0 | Corn plant response rating (corn; [7]): 4 | Corn plant response rating (corn; [8]): 3 | Plant response rating, Sugarbeets (sugar beet; [1]): 0 | Sugarbeets plant response rating (sugar beet; [3]): 2 | Sugarbeets plant response rating (sugar beet; [5]): 2 | Sugarbeets plant response rating (sugar beet; [6]): 6 | Sugarbeets plant response rating (sugar beet; [7]): 2 | Sugarbeets plant response rating (sugar beet; [8]): 9 | Plant response rating, Rape (rape; [1]): 0 | Rape plant response rating (rape; [2]): 0 | Rape plant response rating (rape; [3]): 0 | Rape plant response rating (rape; [5]): 2 | Rape plant response rating (rape; [6]): 5 | Rape plant response rating (rape; [7]): 0 | Rape plant response rating (rape; [8]): 9 | Plant response rating, Bedstraw (bedstraw; [1]): 0 | Bedstraw plant response rating (bedstraw; [2]): 0 | Bedstraw plant response rating (bedstraw; [3]): 3 | Bedstraw plant response rating (bedstraw; [4]): 10 | Bedstraw plant response rating (bedstraw; [5]): 4 | Bedstraw plant response rating (bedstraw; [6]): 9 | Bedstraw plant response rating (bedstraw; [7]): 0 | Bedstraw plant response rating (bedstraw; [8]): 9 | Plant response rating, Redroot pigweed (pigweed; [1]): 5 | Redroot pigweed plant response rating (pigweed; [2]): 6 | Redroot pigweed plant response rating (pigweed; [3]): 8 | Redroot pigweed plant response rating (pigweed; [5]): 9 | Redroot pigweed plant response rating (pigweed; [6]): 10 | Redroot pigweed plant response rating (pigweed; [7]): 6 | Redroot pigweed plant response rating (pigweed; [8]): 10 | Plant response rating, Morningglory (morningglory; [1]): 2 | Morningglory plant response rating (morningglory; [2]): 2 | Morningglory plant response rating (morningglory; [3]): 2 | Morningglory plant response rating (morningglory; [5]): 2 | Morningglory plant response rating (morningglory; [6]): 3 | Morningglory plant response rating (morningglory; [7]): 2 | Morningglory plant response rating (morningglory; [8]): 3 | Plant response rating, B. signalgrass (surinam grass; [1]): 0 | B. signalgrass plant response rating (surinam grass; [2]): 2 | B. signalgrass plant response rating (surinam grass; [4]): 10 | B. signalgrass plant response rating (surinam grass; Rate 62 g/ha, Preemergence, scale 0 (no effect) to 10 (complete control)): 6 | B. signalgrass plant response rating (surinam grass; [6]): 8 | B. signalgrass plant response rating (surinam grass; [7]): 8 | B. signalgrass plant response rating (surinam grass; [8]): 10
